pIC50: −log10 of the molar value.
How the values were obtained:
DU-145 [1] = test: Antiproliferative activity against human DU145 cells after 3 days by fluorescence assay; assay type: functional; conditions: DU-145, 72 h
Tubulin = test: Displacement of [3H]-colchicine from tubulin (unknown origin) after 10 mins by turbidimetrically; assay type: protein-complex assay, Homo sapiens
K562 [2] = test: Induction of mitotic arrest in human K562 cells assessed as growth inhibition by light microscopy; assay type: functional, cell-based
K562 [3] = test: Induction of mitotic arrest in human K562 cells assessed as mitotic indices at 5 uM by light microscopy; assay type: functional
DU-145 [4] = test: Antiproliferative activity against human DU145 cells at 50 uM after 3 days by fluorescence assay; assay type: functional; conditions: DU-145, 72 h, read-out: GI

Row | SMILES | GI50 (DU-145 [1]) [nM] | inhibition of growth at 50 µM (DU-145 [4]) [%] | also measured
1 | O=C(NCc1ccsc1)N1CCC(c2nc(Cc3ccccc3)no2)CC1 | 120 |  | 
2 | O=C(NCc1ccccc1)N1CCC(c2nc(-c3ccccc3Cl)no2)CC1 | 9300 |  | pIC50 (Tubulin): 5.59
3 | O=C(NCc1ccccc1)N1CCC(c2nc(-c3ccc(F)cc3)no2)CC1 | 2800 |  | pIC50 (Tubulin): 5.80; pIC50 (K562 [2]): 5.92; Activity (K562 [3]): 72%
4 | CCCCNC(=O)N1CCC(c2nc(-c3ccc(F)cc3)no2)CC1 |  | < 20 | 
5 | O=C(NCc1ccco1)N1CCC(c2nc(-c3ccc(F)cc3)no2)CC1 | 3300 |  | 
6 | O=C(NCc1cccs1)N1CCC(c2nc(-c3ccc(F)cc3)no2)CC1 | 1700 |  | 
7 | Cc1cc(CNC(=O)N2CCC(c3nc(COc4ccccc4)no3)CC2)nn1C | 2800 |  | 
8 | CN(Cc1ccco1)C(=O)N1CCC(c2nc(-c3ccc(F)cc3)no2)CC1 | 17000 |  | 
9 | COCCNC(=O)N1CCC(c2nc(-c3ccc(F)cc3)no2)CC1 |  | < 20 | 
10 | Cc1ccccc1-c1noc(C2CCN(C(=O)NCc3ccccc3)CC2)n1 | 12300 |  | 
11 | Cc1ccc(-c2noc(C3CCN(C(=O)NCc4ccccc4)CC3)n2)cc1 | 1600 |  | pIC50 (Tubulin): 5.96; pIC50 (K562 [2]): 6.26; Activity (K562 [3]): 83%
12 | O=C(N1CCCCC1)N1CCC(c2nc(-c3ccc(F)cc3)no2)CC1 |  | < 20 | 
13 | COc1cc(OC)cc(-c2noc(C3CCN(C(=O)NCc4ccccc4)CC3)n2)c1 | 4400 |  | 
14 | COc1cccc(NC(=O)N2CCC(c3nc(-c4ccc(Cl)cc4)no3)CC2)c1 | 9500 |  | pIC50 (Tubulin): 5.28
15 | CC(C)(C)NC(=O)N1CCC(c2nc(-c3ccc(F)cc3)no2)CC1 |  | < 20 | 
16 | Cc1noc(C2CCN(C(=O)NCc3ccccc3)CC2)n1 |  | < 20 | 
17 | Cc1cc(CNC(=O)N2CCC(c3nc(-c4ccc(F)cc4)no3)CC2)nn1C | 940 |  | 
18 | O=C(NCc1ccccc1)N1CCC(c2nc(-c3ccc(F)cc3Cl)no2)CC1 | 2900 |  | 
19 | O=C(NCC1CC1)N1CCC(c2nc(-c3ccc(F)cc3)no2)CC1 |  | < 20 | 
20 | O=C(NCc1ccc2c(c1)OCO2)N1CCC(c2nc(-c3ccc(F)cc3)no2)CC1 | 1300 |  | 
21 | O=C(NCc1ccccc1)N1CCC(c2nc(COc3ccccc3)no2)CC1 | 520 |  | 
22 | O=C(NCc1ccsc1)N1CCC(c2nc(COc3ccccc3)no2)CC1 | 1700 |  | 
23 | O=C(NCc1ccsc1)N1CCCCC1c1nc(Cc2ccccc2)no1 (centres undefined) |  | < 20 | 

Row | SMILES | GI50 (DU-145 [1]) [nM] | inhibition of growth at 50 µM (DU-145 [4]) [%] | also measured
24 | O=C(NCc1ccsc1)N1CCCC1c1nc(Cc2ccccc2)no1 (centres undefined) |  | < 20 | 
25 | O=C(NCc1ccsc1)N1CCC(c2nc(Cc3ccccc3)no2)C1 (centres undefined) | 6500 |  | 
26 | O=C(NCc1ccco1)N1CCC(c2nc(-c3ccccc3)no2)CC1 | 6000 |  | 
27 | C#CCNC(=O)N1CCC(c2nc(-c3ccc(F)cc3)no2)CC1 |  | < 20 | 
28 | O=C(N1CCC(c2nc(-c3ccc(F)cc3)no2)CC1)N1CCc2ccccc21 |  | < 20 | 
29 | O=C(NCc1ccccc1)N1CCC(c2nc(Cc3ccccc3)no2)CC1 | 760 |  | 
30 | Cc1cccc(-c2noc(C3CCN(C(=O)NCc4ccccc4)CC3)n2)c1 | 1200 |  | 
31 | Cc1cc(CNC(=O)N2CCC(c3nc(Cc4ccccc4)no3)CC2)nn1C | 950 |  | 
32 | O=C(NCc1ccco1)N1CCC(c2nc(-c3ccc(Cl)cc3)no2)CC1 | 2700 |  | pIC50 (Tubulin): 5.70
33 | Cc1ccc(-c2noc(C3CCN(C(=O)NCc4ccco4)CC3)n2)cc1 | 2200 |  | pIC50 (Tubulin): 5.64
34 | O=C(NCCc1ccccc1)N1CCC(c2nc(-c3ccc(F)cc3)no2)CC1 | 13600 |  | 
35 | O=C(N1CCC(c2nc(-c3ccc(F)cc3)no2)CC1)N1CCCc2ccccc21 |  | < 20 | 
36 | O=C(NCc1ccsc1)N1CCCC(c2nc(Cc3ccccc3)no2)C1 (centres undefined) |  | < 20 | 
37 | O=C(N1CCOCC1)N1CCC(c2nc(-c3ccc(F)cc3)no2)CC1 |  | < 20 | 
38 | O=C(NCc1ccsc1)N1CCC(c2nc(-c3ccc(F)cc3)no2)CC1 | 650 |  | 
39 | O=C(NCc1ccccc1)N1CCC(c2nc(CCN3CCc4ccccc4C3)no2)CC1 | 8600 |  | 
40 | O=C(N1CCC(c2nc(-c3ccc(F)cc3)no2)CC1)N1CCc2ccccc2C1 | 21000 |  | 
41 | COC(=O)CNC(=O)N1CCC(c2nc(-c3ccc(F)cc3)no2)CC1 |  | < 20 | 
42 | O=C(NCc1ccccc1)N1CCC(c2nc(-c3ccccc3)no2)CC1 | 1900 |  | pIC50 (Tubulin): 5.74; pIC50 (K562 [2]): 5.82; Activity (K562 [3]): 75%
43 | O=C(NCCc1c[nH]c2ccccc12)N1CCC(c2nc(-c3ccc(F)cc3)no2)CC1 | 9800 |  | 
44 | O=C(NCc1ccoc1)N1CCC(c2nc(-c3ccc(F)cc3)no2)CC1 | 1100 |  | 
45 | CC(C)Cc1noc(C2CCN(C(=O)NCc3ccccc3)CC2)n1 |  | < 20 | 
46 | O=C(NCc1ccccc1)N1CCC(c2nc(CCN3CCOCC3)no2)CC1 | 11200 |  | 
